Here are results for 24 sequences from patent US9360486B2, “Allergen fragments” (Biomay AG, priority 2007, dated 2016).

The assay deals with Amb a 1-specific T cell lines (TCL). Kind of assay: T cell epitope mapping of Amb a 1.3: proliferation (3H-thymidine uptake) of TCL stimulated with synthetic peptides. Particulars: for No. positive patients SI > 3 / No. positive patients SI > 5 / % (positive patients SI > 3) / % (positive patients SI > 5): TCL from 48 ragweed pollen-allergic patients, peptide 5 μg/ml; for No. positive patients SI > 3 / No. positive patients SI > 5: 3H-thymidine uptake after 48 hrs; for No. positive patients SI > 3 / % (positive patients SI > 3): stimulation index > 3; for No. positive patients SI > 5 / % (positive patients SI > 5): stimulation index > 5; for T cell activating region recognized by % of patients: classes of prevalence referring to SI>5, 48 TCL. The class given is cell-based, human. The text has this:
The T cell response to Amb a 1 was characterized in detail using the established in vitro culture system (Jahn-Schmid et al., J. Immunol. 169: 6005-11, 2002; Jahn-Schmid et al., J. Allergy Clin. Immunol., 115: 399-404, 2005). In total, 85 clinically well-defined patients (75 from Vienna/10 from Milano) with typical case history, positive skin prick test and CAP/RAST tests for ragweed extract were included.
Peripheral blood mononuclear cells (PBMC) were isolated from heparinized blood of allergic patients by Ficoll density gradient centrifugation. To generate allergen-specific T cell lines (TCL) and T cell clones (TCC), 1.5×10^6 PBMC were stimulated with optimal doses of ragweed or mugwort extract (4 μg/ml) or rAmb a 1.3 (10 μg/ml) in 24-well flat-bottomed culture plates (Costar, USA). After 5 days human rIL-2 (10 U/ml, Boehringer, Mannheim, Germany) were added and cultures were continued for additional 7 days. Then, T cell blasts were isolated by density centrifugation. The majority of T cell blasts was further expanded with IL-2 and irradiated PBMC. A small number of T cell blasts were used to establish monoclonal T cell cultures by limiting dilution: 0.3 T cells/well were seeded into 96 well round bottom plates (Nunclone) in the presence of 2×10^5 irradiated (60 Gy) PBMC, 0.25% v/v PHA (Gibco, USA) and rIL-2 (4 U/well) in the medium mentioned above. After 14-21 days, growing microcultures were expanded at weekly intervals with irradiated PBMC and rIL-2. The specificity of TCC was assessed in proliferation assays using irradiated allogeneic or HLA-matched PBMC or irradiated EBV-transformed allogeneic B-cells and 5 μg/ml Amb a 1.3. After 48 hours, cellular uptake of tritiated (^3H)-thymidine was performed to measure proliferation in counts per minute (cpm). When the stimulation index (SI; ratio between cpm obtained in cultures containing TCC plus autologous APC plus antigen, and cpm obtained in cultures containing TCC and APC alone) was >10, responses were considered as positive. Allergen-specific TCC were expanded by alternating turns of stimulation with autologous irradiated APC and allergen or with allogeneic feeder cells and rIL-2.
Amb a 1-specific TCL and TCC were used to identify T cell epitopes of Amb a 1.3. T cell cultures were stimulated with a panel of 121 synthetic 12-mer peptides and one 13-mer representing the C-terminal peptide of Amb a 1.3 (Pepset, Biotrend, Germany). Peptides had been synthesized according to the Amb a 1.3 amino acid sequence and overlapped for 9 amino acid residues with the neighbouring peptides (Table 1). Peptides were used at a concentration of 5 μg/ml for stimulation and proliferation of T cell cultures was determined after 48 hrs by ^3H-thymidine-uptake. Because of the frequently observed high background caused by auto-reactivity in TCL, the mean of the cpm observed with the ten least stimulating peptides (none of the peptides was toxic) was used as negative control in calculations of SI. Throughout this manuscript, a peptide comprised one T cell epitope when the stimulation index was at least 3.0.
T cell epitope mapping of Amb a 1.3 was performed evaluating 48 TCL from different patients ([…]), which had been initiated with ragweed extract (containing the natural allergen) or rAmb a 1.3 (Table 2). TCL induced with either ragweed extract or rAmb a 1.3 from the same individual recognized similar T cell epitopes (Table 2; FIG. 7). […] Therefore, their data were combined for further analysis (Table 3). Typical for many inhalant allergens, multiple T cell activating regions were detected in Amb a 1.3. The number of peptides recognized by T cells from a single individual ranged from 2 to maximum 60 peptides with a mean of 17.8 peptides (median=16/for SI>3; resp. 0-36/11.9/12 for SI>5) (see Table 3). In total, 26 relevant (i.e. recognized by ≧10% of patients studied) T cell activating regions comprising 12-18 aa were identified. […]

Take “TSGSDPVLTPVQ (Amb a 1 fragment) [Peptide 111]”: the “reactivity with T cells isolated from allergic individuals” value (“reactivity with T cells isolated” below) is reported as “reactivity with T cells”, the “No. positive patients SI > 3” value worked out at 16, the “No. positive patients SI > 5” value was 11 and the “% (positive patients SI > 3)” value is on record as 33.3%. The “% (positive patients SI > 5)” value is given as 22.9%.

In the case of “DCAQGFAKGTYG (Amb a 1 fragment) [Peptide 16]”, the “No. positive patients SI > 3” value is given as 2, the “No. positive patients SI > 5” value amounted to 0, the “% (positive patients SI > 3)” value worked out at 4.2% and the “% (positive patients SI > 5)” value is reported as 0.0%.

For “VAFNMFTDNVDQ (Amb a 1 fragment) [Peptide 80]”, the “reactivity with T cells isolated” value is “reactivity with T cells”, the “No. positive patients SI > 3” value was 10, the “No. positive patients SI > 5” value was 6 and the “% (positive patients SI > 3)” value was 20.8%. Moreover, the “% (positive patients SI > 5)” value worked out at 12.5%.

With “GSSQIWIDHCSLSKS (Amb a 1 fragment) [Peptide 60-61]”, the “reactivity with T cells isolated” value is reported as “reactivity with T cells”.

“KNDMVINLNQEL (Amb a 1 fragment) [Peptide 33]”: the “reactivity with T cells isolated” value was “reactivity with T cells”, the “No. positive patients SI > 3” value came to 15, the “No. positive patients SI > 5” value came out at 13 and the “% (positive patients SI > 3)” value amounted to 31.3%. The “% (positive patients SI > 5)” value worked out at 27.1%.

In the case of “HVTISNCKFTQQ (Amb a 1 fragment) [Peptide 69]”, the “reactivity with T cells isolated” value is recorded as “reactivity with T cells”, the “No. positive patients SI > 3” value was 8, the “No. positive patients SI > 5” value was found to be 4 and the “% (positive patients SI > 3)” value is 16.7%. The “% (positive patients SI > 5)” value came out at 8.3%.

For “LTLMNVKNIIIH (Amb a 1 fragment) [Peptide 44]”, the “reactivity with T cells isolated” value was “reactivity with T cells”, the “No. positive patients SI > 3” value stood at 15, the “No. positive patients SI > 5” value was determined as 9 and the “% (positive patients SI > 3)” value stood at 31.3%. Further, the “% (positive patients SI > 5)” value was determined as 18.8% and the “T cell activating region recognized by % of patients” value is “recognized by 18.8%”.

As for “LLENGAIFVTSG (Amb a 1 fragment) [Peptide 108]”, the “reactivity with T cells isolated” value is “reactivity with T cells”, the “No. positive patients SI > 3” value turned out to be 27, the “No. positive patients SI > 5” value is 24 and the “% (positive patients SI > 3)” value was 56.3%. Further, the “% (positive patients SI > 5)” value came to 50.0%.

Regarding “DKDLLENGAIFV (Amb a 1 fragment) [Peptide 107]”, the “reactivity with T cells isolated” value is reported as “reactivity with T cells”, the “No. positive patients SI > 3” value is listed as 30, the “No. positive patients SI > 5” value was 27 and the “% (positive patients SI > 3)” value was 62.5%. The “% (positive patients SI > 5)” value came out at 56.3%.

Take “GRGVKVEIINGG (Amb a 1 fragment) [Peptide 40]”: the “No. positive patients SI > 3” value turned out to be 3, the “No. positive patients SI > 5” value is reported as 4, the “% (positive patients SI > 3)” value was determined as 6.3% and the “% (positive patients SI > 5)” value turned out to be 8.3%.

Take “EGTLRFAAAQNR (Amb a 1 fragment) [Peptide 27]”: the “reactivity with T cells isolated” value was “reactivity with T cells”, the “No. positive patients SI > 3” value is 5, the “No. positive patients SI > 5” value is 5 and the “% (positive patients SI > 3)” value is given as 10.4%. Also, the “% (positive patients SI > 5)” value is 10.4%.

Take “DKDLLENGAIFVTSG (Amb a 1 fragment) [Peptide 107-108]”: the “reactivity with T cells isolated” value is on record as “reactivity with T cells” and the “T cell activating region recognized by % of patients” value is “recognized by 56.3%”.

With “DVANPKEGTLRF (Amb a 1 fragment) [Peptide 25]”, the “No. positive patients SI > 3” value was 2, the “No. positive patients SI > 5” value came to 0, the “% (positive patients SI > 3)” value came out at 4.2% and the “% (positive patients SI > 5)” value was found to be 0.0%.

In the case of “VKVLPGGMIKSN (Amb a 1 fragment) [Peptide 50]”, the “reactivity with T cells isolated” value is listed as “reactivity with T cells”, the “No. positive patients SI > 3” value was determined as 5, the “No. positive patients SI > 5” value came out at 4 and the “% (positive patients SI > 3)” value worked out at 10.4%. The “% (positive patients SI > 5)” value is listed as 8.3%.

Consider “NLNQELVVNSDK (Amb a 1 fragment) [Peptide 35]”, for which the “No. positive patients SI > 3” value was 1, the “No. positive patients SI > 5” value is given as 1, the “% (positive patients SI > 3)” value stood at 2.1% and the “% (positive patients SI > 5)” value amounted to 2.1%.

For the sequence “DTHVQDKGMLAT (Amb a 1 fragment) [Peptide 76]”, the “No. positive patients SI > 3” value is reported as 4, the “No. positive patients SI > 5” value turned out to be 1, the “% (positive patients SI > 3)” value was 8.3% and the “% (positive patients SI > 5)” value was found to be 2.1%.

Regarding “SDKTIDGRGVKV (Amb a 1 fragment) [Peptide 38]”, the “reactivity with T cells isolated” value is reported as “reactivity with T cells”, the “No. positive patients SI > 3” value was determined as 13, the “No. positive patients SI > 5” value stood at 11 and the “% (positive patients SI > 3)” value was determined as 27.1%. Moreover, the “% (positive patients SI > 5)” value is listed as 22.9%.

Regarding “ISNCKFTQQSKA (Amb a 1 fragment) [Peptide 70]”, the “No. positive patients SI > 3” value was determined as 1, the “No. positive patients SI > 5” value amounted to 1, the “% (positive patients SI > 3)” value stood at 2.1% and the “% (positive patients SI > 5)” value is on record as 2.1%.

On to “TGTGAAESMAWN (Amb a 1 fragment) [Peptide 102]”, for which the “reactivity with T cells isolated” value is “reactivity with T cells”, the “No. positive patients SI > 3” value is given as 9, the “No. positive patients SI > 5” value worked out at 6 and the “% (positive patients SI > 3)” value was 18.8%. Moreover, the “% (positive patients SI > 5)” value was determined as 12.5%.

For the sequence “SSAPTILCQGNR (Amb a 1 fragment) [Peptide 93]”, the “reactivity with T cells isolated” value was “reactivity with T cells”, the “No. positive patients SI > 3” value is 6, the “No. positive patients SI > 5” value was determined as 4 and the “% (positive patients SI > 3)” value amounted to 12.5%. Further, the “% (positive patients SI > 5)” value is listed as 8.3%.

With “AKGTYGGKWGDV (Amb a 1 fragment) [Peptide 18]”, the “No. positive patients SI > 3” value came to 1, the “No. positive patients SI > 5” value is given as 0, the “% (positive patients SI > 3)” value was found to be 2.1% and the “% (positive patients SI > 5)” value amounted to 0.0%.

As to “GAAESMAWNWRS (Amb a 1 fragment) [Peptide 103]”, the “No. positive patients SI > 3” value is recorded as 2, the “No. positive patients SI > 5” value stood at 1, the “% (positive patients SI > 3)” value is reported as 4.2% and the “% (positive patients SI > 5)” value stood at 2.1%.

Regarding “LARTGTGAAESMAWN (Amb a 1 fragment) [101/102]”, the “reactivity with T cells isolated” value is on record as “reactivity with T cells” and the “T cell activating region recognized by % of patients” value is reported as “recognized by 14.6%”.

For “LTSSAGVLSCRP (Amb a 1 fragment) [Peptide 120]”, the “reactivity with T cells isolated” value was “reactivity with T cells”, the “No. positive patients SI > 3” value is on record as 14, the “No. positive patients SI > 5” value is reported as 9 and the “% (positive patients SI > 3)” value was 29.2%. The “% (positive patients SI > 5)” value came out at 18.8%.
